{"source": "patent US7652021B2", "about": "“Compounds useful for DPP-IV enzyme inhibition” (Sanofi-Aventis, priority 2003, dated 2010)", "note": "Where a name gives a salt, the structure may show the parent alone.", "data": [{"system": "not given", "experiment": "not given", "conditions": "not given", "units": {"melting point": "°C"}, "values": [{"smiles": "N#Cc1ccc(CNC23CC4CC(CC(NCC(=O)N5CC(F)(F)C[C@H]5C#N)(C4)C2)C3)cc1", "note": "(as salt: hydrochloride) [Example 27, (2S)-1-(N-{3-[(4-cyanobenzyl)amino]-1-adamantyl}glycyl)-4,4-difluoropyrrolidine-2-carbonitrile]", "melting point": "226 to 231"}, {"smiles": "CC1(NCC(=O)N2CC(F)(F)C[C@H]2C#N)CC2CCC(C1)N2c1ncccn1.Cl.Cl", "note": "(stereo partly drawn)", "melting point": "169 to 172"}, {"smiles": "Cl.Cl.N#C[C@@H]1CC(F)(F)CN1C(=O)CNC1C2CCC1CN(c1ncccn1)C2", "note": "(stereo partly drawn)", "melting point": "> 300"}, {"smiles": "N#C[C@H]1COCN1C(=O)CNC12CC3CC(C1)CC(Nc1ncccn1)(C3)C2", "note": "(as salt: hydrochloride) [Example 9, (4S)-3-{N-[3-(pyrimidin-2-ylamino)-1-adamantyl]glycyl}-1,3-oxazolidine-4-carbonitrile]", "melting point": "205 to 207"}, {"smiles": "N#C[C@@H]1CC(F)(F)CN1C(=O)CNC1C2CCC1CN(c1ncccn1)C2", "note": "(stereo partly drawn)", "melting point": "50 to 52"}, {"smiles": "N#C[C@@H]1CCCN1C(=O)CNC1C2CCC1CN(c1ncccn1)C2", "note": "(stereo partly drawn) (as salt: hydrochloride) [Example 40, (2S)-1-[N-(3-pyrimidin-2-yl-3-azabicyclo[3.2.1]oct-8-yl)glycyl]pyrrolidine-2-carbonitrile]", "melting point": "149 to 152"}]}, {"molecular_target": "T1, DPP-IV enzyme (solubilized crude extractum from CaCo/Tc-7 cells) (Homo sapiens, UniProt P27487)", "T1 construct": "solubilized crude extractum from CaCo/Tc-7 cells; endogenous in cells; host or cells: CaCo/Tc-7 cells (solubilized crude extract)", "T1 sequence (P27487 whole entry)": "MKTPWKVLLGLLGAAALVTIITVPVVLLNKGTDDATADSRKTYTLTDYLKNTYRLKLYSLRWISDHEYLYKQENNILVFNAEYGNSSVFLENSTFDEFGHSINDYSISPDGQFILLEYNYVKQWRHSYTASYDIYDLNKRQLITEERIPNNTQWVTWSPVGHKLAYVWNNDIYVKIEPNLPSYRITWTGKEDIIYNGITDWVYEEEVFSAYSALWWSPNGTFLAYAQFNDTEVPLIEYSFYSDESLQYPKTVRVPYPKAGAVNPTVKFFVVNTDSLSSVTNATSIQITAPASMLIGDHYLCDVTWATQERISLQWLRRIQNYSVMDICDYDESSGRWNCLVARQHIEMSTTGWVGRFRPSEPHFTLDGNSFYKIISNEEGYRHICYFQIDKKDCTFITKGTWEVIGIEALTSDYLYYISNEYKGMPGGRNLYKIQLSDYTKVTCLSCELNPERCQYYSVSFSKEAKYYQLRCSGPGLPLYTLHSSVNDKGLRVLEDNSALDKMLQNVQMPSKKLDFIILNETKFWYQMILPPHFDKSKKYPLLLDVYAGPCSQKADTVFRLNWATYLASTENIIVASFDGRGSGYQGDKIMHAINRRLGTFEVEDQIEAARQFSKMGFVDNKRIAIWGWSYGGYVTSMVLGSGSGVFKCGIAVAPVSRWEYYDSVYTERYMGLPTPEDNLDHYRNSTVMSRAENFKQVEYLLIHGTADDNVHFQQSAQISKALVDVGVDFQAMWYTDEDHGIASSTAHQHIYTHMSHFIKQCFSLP", "experiment": "DPP-IV enzyme inhibitory activity, fluorometric H-Gly-Pro-AMC assay", "format": "biochemical", "conditions": "H-Gly-Pro-AMC substrate 250 μM final; 60 min preincubation at 37° C.; 30 min reaction at 37° C.; Tris-HCl pH=7.5", "method": "DPP-IV enzyme inhibitory activties of the compounds with the general formula (I) were determined by the following method: […]\nApplied Conditions of the Assay:\nThe reaction of the DPP-IV enzyme and the H-Gly-Pro-AMC substrate is recorded by the liberation of AMC (7-amino-4-methylcoumarin) at 37° C. in 100 mM Tris-HCl, pH=7.5 (assay buffer). Standard curve of AMC is linear up to 31.25 μM concentration, therefore we used the relative fluorescence unit (RFU) of the AMC formed. It is detected using 360 nm excitation and 465 emmission filters (integration time 30 μs, Gain 25, No. of Flashes 50) by Tecan Spectrofluor Plus plate reader. Under these conditions enzyme reaction is linear for at least 30 min, and the enzyme dependence is linear up to 2.5 μg protein (up to 700 RFU). Using 1-0.8 μg of extracted protein Km for H-Gly-Pro-AMC is 50 μM. Higher than 500 μM substrate concentration caused fluorescent detection problems (inner filter effect) that can be solved by dilution of the samples.\nThe assay is designed to detect as efficiently as possible the active inhibitors using a 60 min preincubation time at 37° C. The assay is conducted by adding 0.8-1 μg protein extract in 10 μl enzyme sulution (using assay buffer: 100 mM Tris-HCl, pH=7.5) to the wells containing the test compounds in 10 μl volume and the 55 μl assay buffer (65 μl assay buffer in the case of controlls). After the preincubation period, the reaction is started by the addition of 25 μlmM H-Gly-Pro-AMC substrate solution (250 μM final concentration). The final test volume is 100 μl and the test solution contains 1% DMSO coming from the test compounds solution. Reaction time is 30 min at 37° C., and the reaction is stopped by adding 300 μl 1M Na-acetate buffer, pH=4.2. The fluorescence (RFU) of AMC formed is detected using 360 nm excitation and 465 emission filters in Tecan spectrofluor Plus plate reader (30 μs integration time, Gain 25 No. of Flashes 50). Inhibition % are calculated using the RFU of control and RFU of blank.", "units": {"IC50": "nM"}, "values": [{"smiles": "N#C[C@@H]1CCCN1C(=O)CNC1C2CCC1CN(c1ncccn1)C2", "note": "(stereo partly drawn) [Example 40, (2S)-1-[N-(3-pyrimidin-2-yl-3-azabicyclo[3.2.1]oct-8-yl)glycyl]pyrrolidine-2-carbonitrile]", "IC50": 30}, {"smiles": "N#C[C@H]1COCN1C(=O)CNC12CC3CC(C1)CC(Nc1ncccn1)(C3)C2", "note": "[Example 9, (4S)-3-{N-[3-(pyrimidin-2-ylamino)-1-adamantyl]glycyl}-1,3-oxazolidine-4-carbonitrile]", "IC50": 21}, {"smiles": "N#Cc1ccc(CNC23CC4CC(CC(NCC(=O)N5CC(F)(F)C[C@H]5C#N)(C4)C2)C3)cc1", "note": "[Example 27, (2S)-1-(N-{3-[(4-cyanobenzyl)amino]-1-adamantyl}glycyl)-4,4-difluoropyrrolidine-2-carbonitrile]", "IC50": 16}]}]}
